In publication PMC6445226, “Kinetic study on the inhibition of xanthine oxidase by acylated derivatives of flavonoids synthesised enzymatically” (Journal of Enzyme Inhibition and Medicinal Chemistry, 2017):
Where two headings read alike, the source gives them in different places.

How the values were obtained:
[1] = target: T1, xanthine oxidase from bovine milk (Bos taurus, UniProt P80457); test: Inhibition of xanthine oxidase (XO) activity, uric acid formed from xanthine, absorbance at 290 nm; format: biochemical; settings: for IC50: value of x when y = 50 from straight line equation of XOI % vs concentration; for inhibition at 45 µM: read-out: Xanthine oxidase inhibition (XOI %)
T1 construct: xanthine oxidase from bovine milk; purchased Sigma-Aldrich Chemical Co., St. Louis, MO; host or cells: bovine milk (natural source)
T1 sequence (P80457 whole entry): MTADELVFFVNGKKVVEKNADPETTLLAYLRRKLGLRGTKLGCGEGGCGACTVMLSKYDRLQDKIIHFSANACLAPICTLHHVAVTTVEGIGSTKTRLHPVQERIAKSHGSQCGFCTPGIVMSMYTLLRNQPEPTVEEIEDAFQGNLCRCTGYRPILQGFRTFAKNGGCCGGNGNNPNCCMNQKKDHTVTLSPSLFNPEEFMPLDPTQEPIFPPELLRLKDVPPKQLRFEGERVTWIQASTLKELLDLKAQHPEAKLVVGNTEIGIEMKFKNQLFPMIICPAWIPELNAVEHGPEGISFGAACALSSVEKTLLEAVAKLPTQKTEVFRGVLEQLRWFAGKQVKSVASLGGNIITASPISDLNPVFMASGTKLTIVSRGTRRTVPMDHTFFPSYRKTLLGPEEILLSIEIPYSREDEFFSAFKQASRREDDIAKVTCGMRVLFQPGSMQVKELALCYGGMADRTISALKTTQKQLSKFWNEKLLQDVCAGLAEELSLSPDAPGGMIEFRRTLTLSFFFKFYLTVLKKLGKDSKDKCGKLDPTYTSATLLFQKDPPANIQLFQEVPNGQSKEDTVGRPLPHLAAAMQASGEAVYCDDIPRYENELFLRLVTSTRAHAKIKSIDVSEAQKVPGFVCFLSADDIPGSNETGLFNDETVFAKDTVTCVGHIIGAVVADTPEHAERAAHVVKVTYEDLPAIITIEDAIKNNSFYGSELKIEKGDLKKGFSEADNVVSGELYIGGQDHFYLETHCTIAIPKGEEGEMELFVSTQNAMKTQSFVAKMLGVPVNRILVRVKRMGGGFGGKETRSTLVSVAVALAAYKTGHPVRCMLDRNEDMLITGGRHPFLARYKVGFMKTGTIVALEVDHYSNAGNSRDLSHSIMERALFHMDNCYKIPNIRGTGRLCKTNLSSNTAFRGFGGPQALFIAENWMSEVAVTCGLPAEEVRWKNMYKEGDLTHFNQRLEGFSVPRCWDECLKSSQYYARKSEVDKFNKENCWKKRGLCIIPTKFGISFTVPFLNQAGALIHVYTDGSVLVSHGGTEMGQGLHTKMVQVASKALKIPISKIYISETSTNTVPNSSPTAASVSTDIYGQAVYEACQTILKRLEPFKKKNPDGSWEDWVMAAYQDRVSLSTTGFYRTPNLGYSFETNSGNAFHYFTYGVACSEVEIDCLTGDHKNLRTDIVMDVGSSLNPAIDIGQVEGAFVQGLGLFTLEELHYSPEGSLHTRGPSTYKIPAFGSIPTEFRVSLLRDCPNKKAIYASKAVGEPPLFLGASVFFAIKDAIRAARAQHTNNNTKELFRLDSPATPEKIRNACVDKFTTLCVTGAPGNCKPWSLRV
Protocol: Inhibition of XO activity was assessed by measuring the uric acid formed from the xanthine substrate. Solutions of xanthine in various concentrations in a 0.1 M, pH 7.4 phosphate buffer were incubated together with 100 μl of ethanol and the same volume of samples of the solutions with different concentrations (45 and 90 μM in a 0.1 M, pH 7.4 phosphate buffer). The samples were pre-incubated at 37 °C for 10 min. The XO solution (0.3 ml, 0.1 U/ml) was added to the reaction mixture and the flasks were incubated at 37 °C for 20 min. The enzymatic reaction was interrupted by adding 25 μl of 3.2% HCl. The absorption of the samples was measured using an ELISA reader Epoch, BioTek (Winooski, VT) at 290 nm. The uric acid production was calculated from the differential absorbance with a blank solution without xanthine oxidase. The control was a solution containing xanthine and XO.
Vmax (maximum reaction rate) and Km (Michaelis–Menten constant, that is the substrate concentration at 1/2 the maximum reaction rate) were calculated and the type of inhibition kinetics was identified using the Origin 8.6 program and the rectangular hyperbola model. […] Reaction rate (expressed as uric acid concentration in μmol/min) was obtained from the uric acid standard curve (y = 0.024x − 0.1242, R^2 = 0.9786).

[2] = Partition coefficient determination in octanol/water (k); format: physicochemical; settings: octan-1-ol/water, 50 μM sample, UHPLC-MS; SD <0.01
Protocol: The partition coefficients of the untreated flavonoids in octanol/water (k) were analysed to determine their degrees of lipophilicity. In test tubes, 2.0 ml of a solution of the sample with a concentration of 50 μM were added to 2.0 ml of octanol saturated with water. The mixture was shaken for 1 min and then centrifuged for 15 min at 3000 rpm. […] The partition coefficient was obtained using the equation: k=Co/Ca×r; where Co = test compound concentration in octanol, Ca = test compound concentration in aqueous solution, r = ratio of the volumes of the oily and the aqueous phases.

XO [3] = test system: XO; parameters: method as in PMID 12231379; settings: XO inhibition; cited from earlier work
XO [4] = test system: XO; parameters: method as in earlier work; settings: XO inhibition; cited from earlier work
[5] = inhibitor at 45 μM, 250 μM of xanthine substrate, derivatives after 12 h of enzymatic acylation

Row | Compound | Xanthine oxidase inhibition (XOI %) [1, 5] | IC50 [1] | Partition coefficient (k) [2] | other results
1 | Hesperidin decanoate | 16.42 ± 3.21% | 199 µM | 0.83 | 
2 | O=c1c(O)c(-c2ccc(O)c(O)c2)oc2cc(O)cc(O)c12 [Quercetin, quercetin] |  |  | 1.46 | 
3 | C[C@@H]1O[C@@H](O[C@H]2[C@H](Oc3cc(O)c4c(c3)O[C@H](c3ccc(O)cc3)CC4=O)O[C@H](CO)[C@@H](O)[C@@H]2O)[C@H](O)[C@H](O)[C@H]1O [Naringin, naringin] |  | 206 µM | 0.37 | inhibition at 45 µM [1, 5]: 14.8 ± 4.8%
4 | Naringin decanoate | 25.61 ± 2.85% | 118 µM | 0.86 | 
5 | Oc1ncnc2[nH]ncc12 [Allopurinol, allopurinol] |  |  |  | inhibition at 45 µM [1]: 89.7%
6 | C[C@@H]1O[C@@H](OC[C@H]2O[C@@H](Oc3c(-c4ccc(O)c(O)c4)oc4cc(O)cc(O)c4c3=O)[C@H](O)[C@@H](O)[C@@H]2O)[C@H](O)[C@H](O)[C@H]1O [Rutin, rutin] |  |  | 0.48 | 
7 | O=c1c(O)c(-c2ccc(O)cc2)oc2cc(O)cc(O)c12 [kaempferol] |  |  |  | IC50 (XO [3]): 2.5 µM
8 | O=c1c(O)c(-c2ccc(O)cc2O)oc2cc(O)cc(O)c12 [morin] |  |  |  | IC50 (XO [3]): 40 µM
9 | isoquercitrin butyrate |  |  |  | IC50 (XO [4]): 144 µM
10 | Naringin octanoate | 28.80 ± 5.76% | 110 µM |  | 
11 | COc1ccc([C@@H]2CC(=O)c3c(O)cc(O[C@@H]4O[C@H](CO[C@@H]5O[C@@H](C)[C@H](O)[C@@H](O)[C@H]5O)[C@@H](O)[C@H](O)[C@H]4O)cc3O2)cc1O [Hesperidin, hesperidin] | 8.24 ± 2.10% | 333 µM | 0.42 | 
12 | isoquercitrin stearate |  |  |  | IC50 (XO [4]): 61 µM
13 | isoquercitrin oleate |  |  |  | IC50 (XO [4]): 27 µM
